Columns and labels:
Bacillus subtilis = assay: Minimum inhibitory concentration (MIC), nutrient agar; assay type: cell-based, Bacillus subtilis (ATCC 8473); settings: Bs, 30° C., 48 hours
Protocol: (§1) The minimum inhibitory concentration (MIC) for compounds of this invention, listed in Table I, is determined for 9 bacteria, using nutrient agar, and 7 yeast and fungi, using malt yeast agar. A one percent solution of a compound is prepared in a mixture of acetone and water. Nutrient agar is prepared at pH 6.8, representing a neutral medium, and at pH 8.2, representing an alkaline medium. The nutrient agars are prepared by adding 23 g of nutrient agar to one-liter of deionized water. In addition, the alkaline medium is prepared by adjusting a 0.04M solution of N-[tris-(hydroxymethyl)methyl]-glycine buffered deionized water with concentrated sodium hydroxide to a pH of […]. Malt yeast agar is prepared by adding 3 g yeast extract and 45 g malt agar per liter of deionized water. The specific agar is dispensed in 30 ml aliquots into 25×200 mm test tubes, capped and autoclaved for 15 minutes at 115° C. The test tubes containing the agar are cooled in a water bath until the temperature of the agar is 48° C. Then, an appropriate amount of the one percent solution of the compound is added (except in the controls where no compound is added) to the respective test tubes so that the final concentrations are 500, 250, 100, 50, 25, 10, 5, 2.5, 1.0 and zero parts per million of the compound in the agar, thus having a known concentration of compound dispersed therein. The contents of the test tubes are then transferred to respective petri plates. After drying for 24 hours, the petri plates containing nutrient agar are inoculated with bacteria and those containing malt yeast agar are inoculated with yeast and fungi.
(§2) The inoculation with bacteria is accomplished by using the following procedure. Twenty-four hour-cultures of each of the bacteria are prepared by incubating the respective bacteria in tubes containing nutrient broth for 24 hours at 30° C. in a shaker. Dilutions of each of the 24 hour-cultures are made so that nine separate suspensions (one for each of the nine test bacteria) are made, each containing 10^8 colony forming units (CFU) per milliliter of suspension of a particular bacteria. Aliquots of 0.3 ml of each of the bacterial suspensions are used to fill the individual wells of Steer's Replicator. For each microbial suspension 0.3 ml was used to fill three wells (i.e., three wells of 0.3 ml each) […] to inoculate both the neutral and alkaline pH nutrient agar petri plates.
(§3) The inoculated petri plates are incubated at 30° C. for 48 hours and then read to determine if the compound which is incorporated into the agar prevented growth of the respective bacteria. […]

Enterobacter aerogenes = assay: as above; assay type: cell-based, Enterobacter aerogenes (ATCC 13048); settings: Ea, 30° C., 48 hours
Protocol: as §1, §2, §3

Escherichia coli = assay: as above; assay type: cell-based, Escherichia coli (ATCC 11229); settings: Ec, 30° C., 48 hours
Protocol: as §1, §2, §3

Klebsiella pneumoniae = assay: as above; assay type: cell-based, Klebsiella pneumoniae (ATCC 8308); settings: Kp, 30° C., 48 hours
Protocol: as §1, §2, §3

Proteus vulgaris = assay: as above; assay type: cell-based, Proteus vulgaris (ATCC 881); settings: Pv, 30° C., 48 hours
Protocol: as §1, §2, §3

[1] = system: Pseudomonas aeruginosa (PRD-10); assay: as above; assay type: cell-based, Pseudomonas aeruginosa (ATCC 15442); settings: 30° C., 48 hours
Protocol: as §1, §2, §3

[2] = system: Pseudomonas aeruginosa (Pa); assay: as above; assay type: cell-based, Pseudomonas aeruginosa (ATCC 10145); settings: 30° C., 48 hours
Protocol: as §1, §2, §3

Salmonella choleraesuis = assay: as above; assay type: cell-based, Salmonella choleraesuis (ATCC 10708); settings: Sc, 30° C., 48 hours
Protocol: as §1, §2, §3

Staphylococcus aureus = assay: as above; assay type: cell-based, Staphylococcus aureus (ATCC 6538); settings: Sa, 30° C., 48 hours
Protocol: as §1, §2, §3

Aspergillus niger = assay: Minimum inhibitory concentration (MIC), malt yeast agar; assay type: cell-based, Aspergillus niger (ATCC 16404); settings: An, 30° C., 72 hours (fungi)
Protocol: (§4) The minimum inhibitory concentration (MIC) for compounds of this invention, listed in Table I, is determined for 9 bacteria, using nutrient agar, and 7 yeast and fungi, using malt yeast agar. A one percent solution of a compound is prepared in a mixture of acetone and water. Nutrient agar is prepared at pH 6.8, representing a neutral medium, and at pH 8.2, representing an alkaline medium. The nutrient agars are prepared by adding 23 g of nutrient agar to one-liter of deionized water. In addition, the alkaline medium is prepared by adjusting a 0.04M solution of N-[tris-(hydroxymethyl)methyl]-glycine buffered deionized water with concentrated sodium hydroxide to a pH of […]. Malt yeast agar is prepared by adding 3 g yeast extract and 45 g malt agar per liter of deionized water. The specific agar is dispensed in 30 ml aliquots into 25×200 mm test tubes, capped and autoclaved for 15 minutes at 115° C. The test tubes containing the agar are cooled in a water bath until the temperature of the agar is 48° C. […]
(§5) The inoculation with the yeast and fungi is accomplished as follows. […] The petri plates are incubated at 30° C. and read after 48 hours for yeast and 72 hours for fungi. […]

Candida albicans = assay: as above; assay type: cell-based, Candida albicans (ATCC 10231); settings: Ca, 30° C., 48 hours (yeast)
Protocol: as §4, §5

Penicillium chrysogenum = assay: as above; assay type: cell-based, Penicillium chrysogenum (ATCC 9480); settings: Pc, 30° C., 72 hours (fungi)
Protocol: as §4, §5

Saccharomyces cerevisiae = assay: as above; assay type: cell-based, Saccharomyces cerevisiae (ATCC 4105); settings: Sc, 30° C., 48 hours (yeast)
Protocol: as §4, §5

Trichoderma viride = assay: as above; assay type: cell-based, Trichoderma viride (ATCC 8678); settings: Tv, 30° C., 72 hours (fungi)
Protocol: as §4, §5

Fusarium oxysporum = assay: as above; assay type: cell-based, Fusarium oxysporum (ATCC 48112); settings: Fo, 30° C., 72 hours (fungi)
Protocol: as §4, §5

| Structure (SMILES) | Minimum Inhibitory Concentration (MIC) (Bacillus subtilis; pH 6.8, nutrient agar) [ppm] | Minimum Inhibitory Concentration (MIC) (Bacillus subtilis; pH 8.2, nutrient agar) [ppm] | Minimum Inhibitory Concentration (MIC) (Enterobacter aerogenes; pH 6.8, nutrient agar) [ppm] | Minimum Inhibitory Concentration (MIC) (Enterobacter aerogenes; pH 8.2, nutrient agar) [ppm] | Minimum Inhibitory Concentration (MIC) (Escherichia coli; pH 6.8, nutrient agar) [ppm] | Minimum Inhibitory Concentration (MIC) (Escherichia coli; pH 8.2, nutrient agar) [ppm] | Minimum Inhibitory Concentration (MIC) (Klebsiella pneumoniae; pH 6.8, nutrient agar) [ppm] | Minimum Inhibitory Concentration (MIC) (Klebsiella pneumoniae; pH 8.2, nutrient agar) [ppm] | Minimum Inhibitory Concentration (MIC) (Proteus vulgaris; pH 6.8, nutrient agar) [ppm] | Minimum Inhibitory Concentration (MIC) (Proteus vulgaris; pH 8.2, nutrient agar) [ppm] | Minimum Inhibitory Concentration (MIC) ([1]; pH 6.8, nutrient agar) [ppm] | Minimum Inhibitory Concentration (MIC) ([1]; pH 8.2, nutrient agar) [ppm] | Minimum Inhibitory Concentration (MIC) ([2]; pH 6.8, nutrient agar) [ppm] | Minimum Inhibitory Concentration (MIC) ([2]; pH 8.2, nutrient agar) [ppm] | Minimum Inhibitory Concentration (MIC) (Salmonella choleraesuis; pH 6.8, nutrient agar) [ppm] | Minimum Inhibitory Concentration (MIC) (Salmonella choleraesuis; pH 8.2, nutrient agar) [ppm] | Minimum Inhibitory Concentration (MIC) (Staphylococcus aureus; pH 6.8, nutrient agar) [ppm] | Minimum Inhibitory Concentration (MIC) (Staphylococcus aureus; pH 8.2, nutrient agar) [ppm] | Minimum Inhibitory Concentration (MIC) (Aspergillus niger) [ppm] | Minimum Inhibitory Concentration (MIC) (Candida albicans) [ppm] | other results |
| --- | --- | --- | --- | --- | --- | --- | --- | --- | --- | --- | --- | --- | --- | --- | --- | --- | --- | --- | --- | --- | --- |
| COP(=O)(C=C(Cl)C#N)OC [Compound A, Phosphonic acid, (2-chloro-2-cyanoethenyl)-dimethyl ester] | 25 | 500 | 500 | > 500 | 250 | > 500 | 250 | 500 | 250 | > 500 | 500 | > 500 | 500 | > 500 | 250 | > 500 | 50 | > 10 | 250 | 100 | Minimum Inhibitory Concentration (MIC) (Penicillium chrysogenum): 50 ppm; Minimum Inhibitory Concentration (MIC) (Saccharomyces cerevisiae): 100 ppm; Minimum Inhibitory Concentration (MIC) (Trichoderma viride): 100 ppm; Minimum Inhibitory Concentration (MIC) (Fusarium oxysporum): 50 ppm |
| CCOP(=O)(C=C(Cl)C#N)OCC [Compound B, Phosphonic acid, (2-chloro-2-cyanoethenyl)-diethyl ester] | 25 | > 500 | 100 | > 500 | 50 | > 500 | 50 | > 500 | 25 | > 500 | 250 | > 500 | 250 | > 500 | 25 | > 500 | 25 | > 500 | 250 | 100 | Minimum Inhibitory Concentration (MIC) (Penicillium chrysogenum): 100 ppm; Minimum Inhibitory Concentration (MIC) (Saccharomyces cerevisiae): 250 ppm; Minimum Inhibitory Concentration (MIC) (Trichoderma viride): 100 ppm; Minimum Inhibitory Concentration (MIC) (Fusarium oxysporum): 50 ppm |

Reference: US5206227A, “Composition and use of phosphonic acid, (2-halo-2-cyanoethenyl)-dialkyl esters as antimicrobials” (priority 1992, dated 1993)
